From patent US20080221134A1, “8-ALKYNYLXANTHINES AND DERIVATIVES” (priority 2006, published 2008)

Columns and labels:
[1] = target: T1, A2A adenosine receptors from rat striatum (Rattus norvegicus, UniProt P30543); test: Sodium chloride-shift experiment; format: binding; conditions: for Sodium Chloride-Shift Ki (+NaCl)/Ki (−NaCl): ratio
T1 construct: A2A adenosine receptors from rat striatum; from tissue; host or cells: rat striatum
Method: The compounds were tested in a sodium chloride-shift experiment of whether they are functionally coupled to A2A adenosine receptors from rat striatum. […] The presence of a relatively high concentration of sodium chloride should not influence the affinity of the antagonists. However, the affinity of A2A AR agonists should be attenuated and therefore lead to an elevated IC50-value. […] This confirms the A2A-antagonistic function of the compounds. (Gao et al, Biochem. Pharmacol., 2000, 60, 669, herein incorporated by reference).

[2] = tested on: Reserpine induced catalepsy; test: Acute Reserpine induced catalepsy test; format: in vivo, rat; conditions: vs only Reserpine-treated animals
Method: (§1) Animals were administered with Reserpine or CGS-21680 according to methods known to the skilled person in the art. These models and procedures are e.g. described by Ferré S. et al., Neurosci. Let., 1991, 130, 162; Ferré S. et al., Neuroscience, 1992, 51, 501; Kafka S. H. et al., Eur. J. Pharmacol., 1996, 295, 147; Rimondini R. et al., Neuropsychopharmacology, 1997, 17, 82 and are herein incorporated by reference. In the acute CGS-21680 induced catalepsy model (CGS model) the test compounds (TC, compounds according to the present invention) and CGS-21680 (i.p. 2 mg/kg) were administered 60 minutes before the start of the catalepsy bar measurement and behavioural testing described below (see also FIG. 1). In the acute Reserpine induced catalepsy model (RES model Resperine (subcutaneously, 3 mg/kg) was injected 24 h prior to the test compound application. Catalepsy bar measurement took place 60 minutes after test compound application (see FIG. 1). Test compounds were administered i.p. in DMSO in following doses (mg/kg): 0.1, 0.3, 1, 3, 10.
(§2) Dimethylsulfoxide (DMSO) was used as vehicle for the test compounds and Reserpine. Reserpine was dissolved in DMSO in a concentration of 3 mg/ml. A 10% (w/v) Cyclodextrin solution was used as vehicle for CGS-21680. CGS 21680 was dissolved in 10% (w/v) Cyclodextrine in a concentration of 2 mg/ml.
Apomorphine was used as a reference compound in the Reserpine induced catalepsy model. Apomorphine injection solution was diluted with purified water to a concentration of 0.3 mg/ml. The solution was administered subcutaneously (s.c.) in a volume of 1 ml/kg (0.3 mg/kg) 20 minutes before the begin of testing after Reserpine pre-treatment (25 hours prior to testing).
The catalepsy bar after Reserpine administration was measured (CAT) as follows: The rat was placed with its forepaws on a log of wood. […] The animal was tested for three trials and the time for each trial was noted. The following parameters were calculated: maximum time to descend (s) and median time to descend (s). […]
(§3) All statistical tests were performed two tailed with a value of p<0.05 considered as significant.
(§4) To assess the effects of CGS-21680 and Reserpine pre-treatment compared to vehicle treated controls statistical comparisons between the test groups were performed using a U test statistic.
To assess the effects of test compounds on CGS-21680 and Reserpine pre-treated animals correlation analyses including animals from test groups and the respective test compound-treated groups were performed.
Additionally, parametric and non-parametric comparisons for the median catalepsy measure were performed to assess the reliability of the method. In case of parametric testing a GLM analyses was performed including animals from a control group (only vehicle treated animals) and the respective test compound-treated groups with dose as a categorical factor. In case of a significant result, a Dunnett's post hoc test was performed between the according test compound groups and a control group as reference group. In case of non-parametric testing a Kruskal-Wallis H-test was performed including animals from a control group and the respective test compound groups. In case of a significant result single U-test comparisons were performed between a control group and the groups treated with different doses of the test compound.

[3] = target: T2, Adenosine A1 (Homo sapiens, UniProt P30542); test: Functional assay (luciferase reporter), inhibition of A1 adenosine receptor; format: cell-based; design: expressed in transfected cells; host or cells: CHO-DUKX-SRE-Luci-A1-44 (CHO-DUKX, vector pCineo); conditions: for A1 AR IC50 / IC50: CHO-DUKX-SRE-Luci-A1-44 cells, 3.5 μM ADAC; for A1 AR Imax: Imax in % of the corresponding antagonist (CPX); for A1 AR Ki / Ki: Ki=IC50/(1+agonist concentration/EC50); for IC50: read-out: A1 AR IC50; for Ki: read-out: A1 AR Ki
T2 sequence (P30542 1-326): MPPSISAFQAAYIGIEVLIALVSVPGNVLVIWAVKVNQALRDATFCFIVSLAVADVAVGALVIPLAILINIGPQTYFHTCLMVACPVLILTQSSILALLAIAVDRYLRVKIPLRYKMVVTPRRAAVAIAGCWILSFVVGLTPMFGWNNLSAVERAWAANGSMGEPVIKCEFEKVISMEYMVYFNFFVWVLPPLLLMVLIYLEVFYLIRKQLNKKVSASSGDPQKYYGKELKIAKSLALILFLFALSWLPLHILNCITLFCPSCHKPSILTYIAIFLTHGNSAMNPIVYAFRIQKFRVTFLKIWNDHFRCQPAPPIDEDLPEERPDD

[4] = target: Adenosine A2A (Homo sapiens, UniProt P29274); test: Functional assay (luciferase reporter), inhibition of A2A adenosine receptor; format: cell-based; design: expressed in transfected cells; host or cells: CHO-DUKX-CRE-A2A-19 (CHO-DUKX, vector pCineo); conditions: for IC50: CHO-DUKX-CRE-A2A-19 cells, 60 nM NECA, read-out: A2A AR IC50; for A2A AR Imax: Imax in % of the corresponding antagonist; for Ki: Ki=IC50/(1+agonist concentration/EC50), read-out: A2A AR Ki
[5] = tested on: CGS-21680 induced catalepsy; test: Acute CGS-21680 induced catalepsy test; format: in vivo, rat; conditions: vs only CGS-21680-treated animals
Method: as §1, §2
Caffeine was used as a reference compound in the CGS-21680 induced catalepsy model. A caffeine solution was prepared with water for injection purposes to a concentration of 30 mg/ml. The solution was administered intraperitoneally in a volume of 1 ml/kg (30 mg/kg) 30 minutes before the beginning of testing and after CGS-21680 pre-treatment (1 hour prior to testing).
The catalepsy bar after CGS-21680 administration was measured (CAT) as follows: The rat was placed with its forepaws on a log of wood. […] If the animal descended faster than 1 second, the trial was regarded as invalid. If more than 20 trials were rated as invalid, the values of all uncompleted trials were noted as 0. The animal was tested until five trials had been completed and the time for each trial was noted. Only the values of the last three trials were used for the analysis. The following parameters were calculated: maximum time to descend (s) and median time to descend (s).
Behavioural observation (BO) included the measurement of the body tone, inclined plane and grip strength.
The rat is taken in the hand of the observer and the animal's body tone is rated as normal, soft or hard. The rating is performed immediately after taking the animal from its home cage before performance of catalepsy testing. The following parameters were calculated: mean occurrence of hard body tone and mean occurrence of soft body tone.
The rat is horizontally placed to an inclined plane for a maximum time of 30 seconds. Time to reach bottom or top is measured. […] The test is performed after catalepsy testing. Time to leave the inclined plane(s) was measured.
The rat is put on a grip and the observer pulls the animal back on his tail. The strength (fore paws and hind paws) by which it holds on the grid is scored as grasping and pulling, grasping without pulling or no grasping. The test is performed after the inclined plane test. The following parameters were calculated: mean score of fore paw grip strength and mean score of hind paw grip strength.
as §3, §4
To assess the effects of test compounds on CGS-21680 and Reserpine pre-treated animals correlation analyses including animals from test groups and the respective test compound-treated groups were performed. […]

[6] = Ki (+100 mM NaCl) rA2A rat striatum [3H] MSX-2 (n = 3), +100 mM NaCl
[7] = Ki rA2A rat striatum [3H] MSX-2 (n = 3), without NaCl

T1 sequence (P30543 whole entry): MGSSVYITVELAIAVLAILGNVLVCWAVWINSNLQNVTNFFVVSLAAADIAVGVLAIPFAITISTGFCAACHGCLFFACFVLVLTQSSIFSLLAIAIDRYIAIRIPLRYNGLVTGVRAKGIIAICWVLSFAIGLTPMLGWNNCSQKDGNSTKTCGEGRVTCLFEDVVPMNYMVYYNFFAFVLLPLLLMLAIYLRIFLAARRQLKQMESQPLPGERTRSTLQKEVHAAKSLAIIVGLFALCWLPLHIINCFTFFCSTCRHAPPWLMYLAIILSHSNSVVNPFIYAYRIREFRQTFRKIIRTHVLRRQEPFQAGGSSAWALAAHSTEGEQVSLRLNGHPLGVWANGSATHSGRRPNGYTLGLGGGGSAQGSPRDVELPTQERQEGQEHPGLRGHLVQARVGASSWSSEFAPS
Adenosine A2A, sequence (P29274 whole entry): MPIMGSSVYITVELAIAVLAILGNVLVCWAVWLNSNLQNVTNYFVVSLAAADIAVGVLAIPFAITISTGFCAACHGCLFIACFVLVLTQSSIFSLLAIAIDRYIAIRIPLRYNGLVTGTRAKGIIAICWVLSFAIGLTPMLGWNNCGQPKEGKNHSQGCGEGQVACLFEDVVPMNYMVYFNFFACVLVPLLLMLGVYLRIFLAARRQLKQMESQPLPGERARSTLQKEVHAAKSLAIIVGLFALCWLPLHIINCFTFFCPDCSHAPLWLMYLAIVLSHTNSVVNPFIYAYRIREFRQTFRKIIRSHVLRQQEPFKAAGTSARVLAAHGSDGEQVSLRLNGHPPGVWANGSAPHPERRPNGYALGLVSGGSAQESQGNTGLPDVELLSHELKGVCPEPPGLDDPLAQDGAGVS

| SMILES | Ki [1, 6] [nM] | Ki [1, 7] [nM] | Sodium Chloride-Shift Ki (+NaCl)/Ki (−NaCl) [1] | A1 AR Imax [3] | IC50 [4] [nM] | A2A AR Imax [4] [%] | Ki [4] [nM] | also measured |
| --- | --- | --- | --- | --- | --- | --- | --- | --- |
| C#CCn1c(=O)c2c(nc(C#Cc3cccc(OC)c3)n2C)n(C)c1=O [drawing 614] | 33.2 ± 9.9 | 30.9 ± 8 | 0.97 ± 0.03 |  |  |  |  |  |
| CN1CCc2cccc3c2[C@H]1Cc1ccc(O)c(O)c1-3 [apomorphine, Apomorphine, reference compound] |  |  |  |  |  |  |  | maximum catalepsy values after Reserpine treatment [2]: decreased; median catalepsy values after Reserpine treatment [2]: decreased |
| C#CCn1c(=O)c2c(nc(C#Cc3cccc(Cl)c3)n2C)n(C)c1=O [drawing 616] | 39.5 ± 13.1 | 46 ± 9 | 0.82 ± 0.13 |  |  |  |  |  |
| C#CCn1c(=O)c2c(nc(C#Cc3cccc(OC)c3)n2C)n(C)c1=O [drawing 617] |  |  |  | Nosignificantactivitydetected | 1900 | 90 | 178 | A1 AR IC50 [3]: Nosignificantactivitydetected; A1 AR Ki [3]: Nosignificantactivitydetected |
| C#CCn1c(=O)c2c(nc(C#Cc3ccc(OC)c(OC)c3)n2C)n(C)c1=O [drawing 619] |  |  |  | Nosignificantactivitydetected | 600 | 95 | 58 | A1 AR IC50 [3]: Nosignificantactivitydetected; A1 AR Ki [3]: Nosignificantactivitydetected |
| C#CCn1c(=O)c2c(nc(C#Cc3cccc(OC)c3)n2CC#C)n(C)c1=O [drawing 621] |  |  |  | 55% | 500 | 86 | 47 | IC50 [3]: 2300 nM; Ki [3]: 501 nM |
| Cn1c(=O)c2c(ncn2C)n(C)c1=O [caffeine, 1,3,7-trimethylxanthine, reference compound] |  |  |  |  |  |  |  | hard body tone after CGS-21680 treatment [5]: increased; maximum catalepsy values after CGS-21680 treatment [5]: significantly decreased; median catalepsy values after CGS-21680 treatment [5]: significantly decreased; soft body tone after CGS-21680 treatment [5]: decreased |
| C#CCn1c(=O)c2c(nc(C#Cc3cccc(C)c3)n2C)n(C)c1=O [drawing 615] | 53.1 ± 5.9 | 43.4 ± 11.6 | 1.19 ± 0.16 |  |  |  |  |  |
| C#CCn1c(=O)c2c(nc(C#Cc3cccc(C)c3)n2C)n(CCCO)c1=O [drawing 623] |  |  |  | 102% | 400 | 109 | 40 | IC50 [3]: 1300 nM; Ki [3]: 289 nM |
